Source: patent publication US6451796B1, “Fused pyrazine compounds” (Ono Pharmaceutical Co., Ltd., priority 1997, dated 2002)

Legend:
Type in all cases: cell-based
[1] = Cytotoxicity test by MTT assay; settings: human; EC treated under conditions identical to adhesion molecule expression measurement; MTT 3 hours
Experimental: Furthermore, MTT [3-(4,5-dimethyl-2-thiazolyl)-2,5-diphenyl-2H-tetrazolium bromide] assay was enforced and the number of living cells was counted in order to estimate the effect of compound not to depend cytotoxicity on the above evaluation system.
(2) Cytotoxicity Test by MTT Assay
EC Were treated under conditions identical to those employed for measurement of adhesion molecules expression. After incubation, the wells were washed with PBS(−) once, added 100 μl of MTT solution (1 mg/ml) and incubated for 3 hours. After incubation supernatants were discarded and 100 μl of methanol added. After stirring, OD of each well read at 570 nm/690 nm in immunoreader. Inhibitory percentage was calculated as follows and IC50 value was estimated by percentage for control.
Inhibitory percentage (%)=[(C−S)/C)]×100
(§1) C: OD of the sample stimulated by cytokines
(§2) S: OD of the sample stimulated by cytokines in the presence of test compound

E-selectin expression = experiment: Inhibition of E-selectin expression in HUVEC (cell ELISA); settings: Homo sapiens; HUVEC stimulated with TNFα for 6 hours, ELISA of surface expression
Experimental: (§3) (1) Inhibition of Adhesion Molecules Expression in HUVEC
(§4) Human umbilical vein endothelial cells were cultured using MCDB104 medium (Nissui) containing 5% Fetal bovine serum supplemented antibiotics (100 U/ml penicillin, 100 μg/ml streptomycin (Gibco)), 0.01 mg/ml heparin (Nissui) and 0.005 mg/ml endothelial cells (EC) growth factor (Nissui) in gelatin coated 96-well microtiter plates by resulting in confluent monolayers.
(§5) The compounds were dissolved in dimethyl sulfoxide and prepared final 0.2% concentration in the medium and then added 50 μl into the well. Cytokine stimulation of EC was performed by adding 50 μl of 10 ng/ml TNFα (Genzyme) (for E-selectin. and ICAM-1 expression) or 50 μl of 10 ng/ml TNFα plus 1 ng/ml IL-4 (Genzyme)(for VCAM- expression).
(§6) After stimulation for 6 hours, the wells were washed with PBS(−) once and EC monolayers were fixed by incubating with methanol containing 0.3% hydrogen peroxide for 10 minutes at room temperature. After washing with PBS(−) three times, an ELISA was used to measure the expression of adhesion molecules on EC surface. The ELISA was performed at room temperature with three times washes with PBS(−) between each step. EC were incubated for 30 minutes in turn with 100 μl primary antibody which were anti-ICAM-1 antibody (BBA4), anti-E-selectin antibody (BBA2) or anti-VCAM-1 antibody (BBA6) (mouse IgG1, 1.25 μl/ml; R&D), with 100 μl of secondary antibody which was goat anti-mouse IgG conjugated peroxidase (dilution (1/400); Nordic Immunological laboratories). The enzyme substrate 1 mg/ml o-phenylenediamine/2HCl and 0.1% hydrogen peroxide of 100 μl was added and incubated for 4 minutes at room temperature.
(§7) Reaction was stopped with 50 μl of 8N sulfuric acid and optical density (OD) of each well read at 490 nm in immunoreder. Inhibitory percentage was calculated as follows and IC50 value was estimated by percentage for control.
(§8) Inhibitory percentage (%)=[(C−S)/(C−B)]×100
as §1, §2
(§9) B: OD of the nonstimulated sample

VCAM-1 expression = experiment: Inhibition of VCAM-1 expression in HUVEC (cell ELISA); settings: Homo sapiens; HUVEC stimulated with TNFα plus IL-4 for 6 hours, ELISA of surface expression
Experimental: as §3, §4, §5, §6, §7, §8, §1, §2, §9

ICAM-1 expression = experiment: Inhibition of ICAM-1 expression in HUVEC (cell ELISA); settings: Homo sapiens; HUVEC stimulated with TNFα for 6 hours, ELISA of surface expression
Experimental: as §3, §4, §5, §6, §7, §8, §1, §2, §9

Row | IC50 (E-selectin expression) | IC50 (VCAM-1 expression) | IC50 (ICAM-1 expression) | SMILES | IC50 [1]
1 | 1.04 µM | 0.95 µM | 0.95 µM | FC(F)(F)c1nnc2c(Sc3ccccc3)nc3ccccc3n12 [Compound (12), 4-Phenylthio(5-trifluoromethyl-1,2,4-triazolo)-[4,3-a]quinoxaline] | > 50000 nM
2 | 0.103 µM | 0.032 µM | 0.073 µM | CC(C)Sc1nc2cccnc2n2c(C(F)(F)F)nnc12 [Example 3(16), 4-Isopropylthio-(5-trifluoromethyl-1,2,4-triazolo)[3,4-c]1,4,5-triazanaphthalene] | > 100000 nM
3 | 0.6 µM | 0.2 µM | 0.4 µM | OCCCCCSc1nc2ccc(Cl)cc2n2c(C(F)(F)F)nnc12 [Example 3(73), 8-Chloro-4-(5-hydroxypentyl)thio-(5-trifluoromethyl-1,2,4-triazolo)[4,3-a]quinoxaline] | > 25000 nM
